Test: Stability test: accelerated storage of formulations, relative percentage of hydrolysis (RPH) by HPLC (CIPAC MT 46.3)
Type: physicochemical
Details: for stability (hydrolysis), in words: general statement, in water, on storage, in formulations; for RPH % (relative percentage of hydrolysis): stored at 54° C. for 1 week
Experimental: The stability of the iodosulfuron-methyl-sodium in these compositions was determined by aging samples in heated ovens having the same atmosphere therein, and then comparing the iodosulfuron-methyl-sodium content before and after the aging to determine relative percentage of hydrolysis (RPH). RPH was calculated by the following equation: […]
Iodosulfuron-methyl-sodium content was determined by assaying the compositions with high-pressure liquid chromatography (HPLC) using reverse phase columns and eluants.
Samples prepared in Examples 4, 5 and 6 were stored at 54° C. for 1 week. The procedures are followed according to CIPAC MT 46.3. The concentration of iodosulfuron-methyl-sodium was measured at the end of each storage time by HPLC.

[1] = oil based suspension concentrate (OD) of Example 4, 40 wt% iodosulfuron-methyl-sodium
[2] = soluble granules (SG) of Example 5, 25 wt% iodosulfuron-methyl-sodium
[3] = water dispersible granules (WG) of Example 6, 25 wt% iodosulfuron-methyl-sodium

Structure (SMILES) | stability (hydrolysis), in words (listed as iodosulfuron-methyl-sodium in the amorphous state) | RPH % (relative percentage of hydrolysis) [1] | RPH % (relative percentage of hydrolysis) [2] | RPH % (relative percentage of hydrolysis) [3] | stability (hydrolysis), in words (listed as crystalline modification I of iodosulfuron-methyl-sodium)
COC(=O)c1ccc(I)cc1S(=O)(=O)NC(=O)[N-]c1nc(C)nc(OC)n1.[Na+] [Amorphous iodosulfuron-methyl-sodium, sodium salt of methyl 4-iodo-2-[[[[(4-methoxy-6-methyl-1,3,5-triazin-2-yl)amino]carbonyl]amino]sulfonyl]benzoate] | highly unstable | 49% | 42% | 40% | 
COC(=O)c1ccc(I)cc1S(=O)(=O)NC(=O)[N-]c1nc(C)nc(OC)n1.[Na+] [Iodosulfuron-methyl-sodium, crystalline modification I] [sodium salt of methyl 4-iodo-2-[[[[(4-methoxy-6-methyl-1,3,5-triazin-2-yl)amino]carbonyl]amino]sulfonyl]benzoate] |  | 0% | 0% | 0% | significant increase in its stability

Reference: patent publication US10059676B2, “Process for preparing a novel crystalline form of iodosulfuron-methyl-sodium and use of the same” (ROTAM AGROCHEM INTERNATIONAL COMPANY LIMITED, priority 2015, dated 2018)
